≈ marks a conversion by molar mass, not a printed value.
Tests used:
[1] = target: T1, Carnitine O-palmitoyltransferase 1, muscle isoform (Homo sapiens, UniProt Q92523); experiment: SUPPLEMENTARY: Inhibition of Carnitine palmitoyltransferase 1, muscle isoform; design: species or system Muscle tissue
T1 sequence (Q92523 whole entry): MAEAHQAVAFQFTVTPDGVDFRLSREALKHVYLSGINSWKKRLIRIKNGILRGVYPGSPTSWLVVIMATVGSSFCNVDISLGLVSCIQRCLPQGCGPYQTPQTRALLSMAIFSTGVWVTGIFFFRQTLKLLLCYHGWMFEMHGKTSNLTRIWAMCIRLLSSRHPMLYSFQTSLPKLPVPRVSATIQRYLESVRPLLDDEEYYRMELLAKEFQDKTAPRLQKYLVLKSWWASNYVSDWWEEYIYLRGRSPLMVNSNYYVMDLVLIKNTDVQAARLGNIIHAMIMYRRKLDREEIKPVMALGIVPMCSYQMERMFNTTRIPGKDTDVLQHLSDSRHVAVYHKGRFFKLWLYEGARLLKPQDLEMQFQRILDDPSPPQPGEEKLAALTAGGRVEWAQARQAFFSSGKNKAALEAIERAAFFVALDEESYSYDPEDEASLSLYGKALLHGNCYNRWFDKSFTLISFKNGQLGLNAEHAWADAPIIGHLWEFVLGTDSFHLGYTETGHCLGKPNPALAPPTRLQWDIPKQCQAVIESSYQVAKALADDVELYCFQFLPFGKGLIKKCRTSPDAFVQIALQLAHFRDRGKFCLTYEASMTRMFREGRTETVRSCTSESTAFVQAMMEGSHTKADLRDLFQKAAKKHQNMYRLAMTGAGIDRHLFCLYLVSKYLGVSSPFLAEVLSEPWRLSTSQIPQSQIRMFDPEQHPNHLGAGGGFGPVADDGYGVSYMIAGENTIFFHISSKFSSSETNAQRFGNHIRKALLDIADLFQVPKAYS

[2] = SUPPLEMENTARY: PAMPA permeability assay; assay type: physicochemical; conditions: read-out: Permeability
[3] = target: T2, Carnitine O-palmitoyltransferase 2, mitochondrial (Rattus norvegicus, UniProt P18886); experiment: (§1) SUPPLEMENTARY: Inhibition of Carnitine palmitoyltransferase 2
T2 sequence (P18886 whole entry): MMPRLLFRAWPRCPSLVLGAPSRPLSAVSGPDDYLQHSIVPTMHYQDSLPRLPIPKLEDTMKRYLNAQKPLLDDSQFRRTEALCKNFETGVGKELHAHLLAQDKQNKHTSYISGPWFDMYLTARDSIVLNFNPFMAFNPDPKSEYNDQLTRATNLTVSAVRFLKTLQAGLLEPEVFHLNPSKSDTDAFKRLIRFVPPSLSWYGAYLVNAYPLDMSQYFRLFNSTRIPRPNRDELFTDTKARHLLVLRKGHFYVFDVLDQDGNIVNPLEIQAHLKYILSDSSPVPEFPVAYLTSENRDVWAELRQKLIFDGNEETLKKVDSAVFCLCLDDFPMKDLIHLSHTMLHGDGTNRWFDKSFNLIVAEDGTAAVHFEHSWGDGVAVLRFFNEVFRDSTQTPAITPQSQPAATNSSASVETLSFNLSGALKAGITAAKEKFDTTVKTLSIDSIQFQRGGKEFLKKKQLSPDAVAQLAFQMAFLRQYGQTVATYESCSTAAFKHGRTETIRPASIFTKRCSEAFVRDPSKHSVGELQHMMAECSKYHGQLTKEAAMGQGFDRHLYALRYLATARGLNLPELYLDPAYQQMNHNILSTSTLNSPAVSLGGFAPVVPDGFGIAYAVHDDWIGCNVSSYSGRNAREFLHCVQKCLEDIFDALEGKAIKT

[4] = target: T3, Carnitine O-palmitoyltransferase 2, mitochondrial (Homo sapiens, UniProt P23786); experiment: as §1
T3 sequence (P23786 whole entry): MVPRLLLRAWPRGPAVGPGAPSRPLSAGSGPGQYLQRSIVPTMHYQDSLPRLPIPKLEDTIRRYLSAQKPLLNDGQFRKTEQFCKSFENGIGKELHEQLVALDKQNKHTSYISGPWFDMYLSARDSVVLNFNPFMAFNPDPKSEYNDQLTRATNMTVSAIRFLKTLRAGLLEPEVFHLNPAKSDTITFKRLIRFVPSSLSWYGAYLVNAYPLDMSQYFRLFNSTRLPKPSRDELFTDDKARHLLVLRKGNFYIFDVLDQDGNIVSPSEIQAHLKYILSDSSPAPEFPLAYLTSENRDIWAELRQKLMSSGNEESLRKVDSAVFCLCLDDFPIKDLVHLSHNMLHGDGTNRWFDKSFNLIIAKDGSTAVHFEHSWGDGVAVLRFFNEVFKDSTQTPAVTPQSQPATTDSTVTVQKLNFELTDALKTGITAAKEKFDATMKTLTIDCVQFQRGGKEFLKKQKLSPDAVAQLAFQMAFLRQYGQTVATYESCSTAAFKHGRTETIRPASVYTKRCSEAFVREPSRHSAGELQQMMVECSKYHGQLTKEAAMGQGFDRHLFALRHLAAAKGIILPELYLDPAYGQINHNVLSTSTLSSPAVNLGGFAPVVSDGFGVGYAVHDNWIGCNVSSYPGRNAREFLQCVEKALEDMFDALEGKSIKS

[5] = target: T4, Carnitine O-palmitoyltransferase 1, liver isoform (Homo sapiens, UniProt P50416); experiment: (§2) SUPPLEMENTARY: Inhibition of Carnitine palmitoyltransferase 1, liver isoform
T4 sequence (P50416 whole entry): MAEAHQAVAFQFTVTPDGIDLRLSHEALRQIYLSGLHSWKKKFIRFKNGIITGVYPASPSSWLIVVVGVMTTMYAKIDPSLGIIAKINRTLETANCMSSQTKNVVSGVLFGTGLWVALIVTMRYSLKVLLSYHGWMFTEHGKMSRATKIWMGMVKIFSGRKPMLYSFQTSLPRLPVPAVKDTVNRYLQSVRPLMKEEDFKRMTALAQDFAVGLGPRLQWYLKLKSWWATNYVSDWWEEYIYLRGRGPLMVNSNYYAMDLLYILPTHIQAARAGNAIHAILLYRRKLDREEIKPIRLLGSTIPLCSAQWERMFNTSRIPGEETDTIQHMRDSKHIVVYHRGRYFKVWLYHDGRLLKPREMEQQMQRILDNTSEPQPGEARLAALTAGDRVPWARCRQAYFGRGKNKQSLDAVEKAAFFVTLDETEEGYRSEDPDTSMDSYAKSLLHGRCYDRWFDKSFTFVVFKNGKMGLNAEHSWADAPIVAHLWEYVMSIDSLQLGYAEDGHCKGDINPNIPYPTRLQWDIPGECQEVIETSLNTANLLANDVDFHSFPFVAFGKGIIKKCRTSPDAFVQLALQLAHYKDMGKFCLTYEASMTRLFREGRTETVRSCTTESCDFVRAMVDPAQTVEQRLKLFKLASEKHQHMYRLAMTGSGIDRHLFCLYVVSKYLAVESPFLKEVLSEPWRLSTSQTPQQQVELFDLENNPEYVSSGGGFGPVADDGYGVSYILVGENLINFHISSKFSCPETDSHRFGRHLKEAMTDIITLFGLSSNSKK

[6] = target: T5, Carnitine O-palmitoyltransferase 1, liver isoform (Rattus norvegicus, UniProt P32198); experiment: as §2
T5 sequence (P32198 whole entry): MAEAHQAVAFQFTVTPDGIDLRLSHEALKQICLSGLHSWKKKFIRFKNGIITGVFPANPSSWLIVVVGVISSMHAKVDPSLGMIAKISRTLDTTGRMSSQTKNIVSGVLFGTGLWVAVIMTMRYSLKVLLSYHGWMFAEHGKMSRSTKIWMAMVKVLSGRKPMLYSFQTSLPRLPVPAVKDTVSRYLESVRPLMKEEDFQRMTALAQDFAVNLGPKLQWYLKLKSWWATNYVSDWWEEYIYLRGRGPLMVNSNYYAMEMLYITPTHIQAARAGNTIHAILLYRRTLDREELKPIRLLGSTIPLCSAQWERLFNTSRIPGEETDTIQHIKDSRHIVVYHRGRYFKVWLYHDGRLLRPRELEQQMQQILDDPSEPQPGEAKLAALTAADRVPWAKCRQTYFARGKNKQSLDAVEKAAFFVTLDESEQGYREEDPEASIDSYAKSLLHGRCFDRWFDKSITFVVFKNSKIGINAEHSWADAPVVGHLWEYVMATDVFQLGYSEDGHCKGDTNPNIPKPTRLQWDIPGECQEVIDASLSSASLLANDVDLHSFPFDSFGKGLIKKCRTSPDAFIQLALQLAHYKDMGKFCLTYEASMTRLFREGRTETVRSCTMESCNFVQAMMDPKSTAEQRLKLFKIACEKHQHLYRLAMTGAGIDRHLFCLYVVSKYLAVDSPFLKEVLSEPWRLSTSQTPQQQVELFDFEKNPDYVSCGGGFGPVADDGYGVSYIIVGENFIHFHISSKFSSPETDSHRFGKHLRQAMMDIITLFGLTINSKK

[7] = SUPPLEMENTARY: Lipophilicity (log D) Determination by high-throughput shake-flask; assay type: physicochemical; conditions: octanol/water
[8] = SUPPLEMENTARY: Lyophilisation Solubility Assay (LYSA); assay type: physicochemical; conditions: read-out: Kinetic_solubility

SMILES | IC50 [1] | Papp [2] | IC50 [3] | IC50 [4] | IC50 [5] | IC50 [6] | logD [7] | solubility kinetic [8]
O=C([C@H]1CCCCN1C(=O)COc1ccccc1)N1Cc2ccc(Cl)cc2C1 | > 100000 nM | 5.03 ×10⁻⁶ cm/s | 819 nM | 616 nM | 336 nM | 567 nM | 3.26 | 15 µg/mL (≈ 37.6 µM)
O=C(COc1ccccc1)N1CCCC[C@@H]1c1noc(-c2cccc(-n3cn[nH]c3=O)c2)n1 | > 100000 nM | 3.47 ×10⁻⁶ cm/s | > 100000 nM | 12000 nM | 59.1 nM | 334 nM | 2.35 | 48 µg/mL (≈ 108 µM)
O=C1CN(c2cccc(-c3nc([C@H]4CCCCN4C(=O)COc4ccccc4)no3)c2)C(=O)N1 | > 100000 nM | 3.43 ×10⁻⁶ cm/s | 58700 nM | 10300 nM | 65.1 nM | 102 nM | 2.62 | 127 µg/mL (≈ 275 µM)
O=C1CCCN1c1cccc(-c2nc([C@H]3CCCCN3C(=O)COc3ccccc3)no2)c1 | > 100000 nM | 2.33 ×10⁻⁶ cm/s | > 100000 nM | 38400 nM | 142 nM | 165 nM | 3.07 | 9 µg/mL (≈ 20.2 µM)
COc1ccc(Cl)cc1S(=O)(=O)N1COc2c(C)cc(C(=O)Nc3nc(CC(=O)O)cs3)cc21 | 844 nM | 2.77 ×10⁻⁶ cm/s | > 100000 nM | 40900 nM | 80.1 nM | 65.4 nM | 0.58 | 195 µg/mL (≈ 372 µM)
CCOc1ccc(C(=O)Nc2ccc(CC(=O)O)cc2)cc1N(CCS(=O)O)S(=O)(=O)c1cc(Cl)ccc1OC | 634 nM | 0.04 ×10⁻⁶ cm/s | > 100000 nM | > 100000 nM | 105 nM | 408 nM | < -1 | 577 µg/mL (≈ 944 µM)
CCOc1ccc(C(=O)Nc2ccc(C(=O)O)c(F)c2)cc1N(CCS(=O)O)S(=O)(=O)c1cc(Cl)ccc1OC | 27700 nM | 0.07 ×10⁻⁶ cm/s | > 100000 nM | > 100000 nM | 146 nM | 140 nM | -1.31 | > 685 µg/mL
COc1cccc2c1CCN(C(=O)[C@H]1CCCCN1C(=O)COc1ccccc1)C2 | > 100000 nM | 5.46 ×10⁻⁶ cm/s | 2190 nM | 983 nM | 219 nM | 473 nM | 3.13 | 23 µg/mL (≈ 56.3 µM)

Next, values leading:

IC50 [1] | Papp [2] | IC50 [3] | IC50 [4] | IC50 [5] | IC50 [6] | logD [7] | solubility kinetic [8] | SMILES
> 100000 nM | 1 ×10⁻⁶ cm/s | > 100000 nM | > 100000 nM | 67 nM | 162 nM | 2.89 | < 1 µg/mL | O=C(COc1ccccc1)N1CCCC[C@@H]1c1noc(-c2cccc(N3CCCS3(=O)=O)c2)n1
3650 nM | 2.08 ×10⁻⁶ cm/s | > 100000 nM | > 100000 nM | 272 nM | 206 nM | 0.68 | 502 µg/mL (≈ 946 µM) | COc1ccc(Cl)cc1S(=O)(=O)N1CCOc2c(C)cc(C(=O)Nc3ccc(CC(=O)O)cc3)cc21
3170 nM | 1.88 ×10⁻⁶ cm/s | > 100000 nM | > 100000 nM | 53.9 nM | 38.3 nM | 2.55 | 3 µg/mL (≈ 5.58 µM) | COc1ccc(Cl)cc1S(=O)(=O)N1CCOc2c(C)cc(C(=O)Nc3nc(CC(=O)O)cs3)cc21
1200 nM | 0.49 ×10⁻⁶ cm/s | > 100000 nM | > 100000 nM | 39.3 nM | 59.2 nM | 1.48 | 55 µg/mL (≈ 121 µM) | COc1ccc(Cl)cc1Cc1c[nH]c2ccc(C(=O)Nc3nc(CC(=O)O)cs3)cc12
491 nM | 0.43 ×10⁻⁶ cm/s | > 100000 nM | > 100000 nM | 180 nM | 147 nM | 0.72 | 319 µg/mL (≈ 711 µM) | COc1ccc(Cl)cc1Cc1c[nH]c2ccc(C(=O)Nc3ccc(CC(=O)O)cc3)cc12
79000 nM | 1.91 ×10⁻⁶ cm/s | 3520 nM | 2810 nM | 182 nM | 110 nM | 3.2 | < 1 µg/mL | O=C([C@H]1CCCCN1C(=O)COc1ccccc1)N1CCc2cccc(Cl)c2C1
